From a melting point compilation (Tetko et al.; mined from patent text by program, amines drawn as free bases though some values may be those of a salt)

| SMILES | melting point |
| --- | --- |
| O=C(NCc1ccccc1)c1ccnc(-n2ccc(OCc3ccccc3)cc2=O)c1 | 158 to 161 °C |
| CCCCCCCc1ccc(C(=O)CCCCC(=O)O)cc1[N+](=O)[O-] | 53 to 56 °C |
| O=C1CCCCc2ccc([N+](=O)[O-])cc21 | 88 to 89 °C |
| Cc1cc(-c2nc[nH]n2)ccc1N | 183 to 186 °C |
| O=c1[nH]c(-c2ccc(CCN3CCN(c4cccc5cc(F)ccc45)CC3)cc2)cs1 | 228 to 270 °C |
| CC(C(=O)NC1CC(C(=O)O)Nc2cc(Cl)cc(Cl)c21)c1ccccc1 (centres undefined) | 210 to 212 °C |
| CC(C)c1nc(-c2cccs2)cc(-c2ccc(F)cc2)c1C=C(Br)Br | 107 to 108 °C |
| OC(c1ccc(Br)cc1)c1ccc(Br)cc1 | 112 to 113 °C |
| CCCCc1ncc(CSc2ncccc2C(=O)O)n1Cc1ccc(C(=O)O)cc1 | 155 to 157 °C |
| CN(Cc1ccc(Cl)cc1)c1ccc(S(=O)CCCCCC(=O)O)cc1 (centres undefined) | 109 to 111 °C |
| O=C1COC(=O)C1=Cc1cccc(C(F)(F)F)c1 | 108 to 109 °C |
| CC(C)C1(C)N=C(c2ncc(C3CC3)cc2C(=O)O)NC1=O (centres undefined) | 157 to 163 °C |
| Cc1ncc(OC2CCCCO2)c(=O)[nH]1 (centres undefined) | 149 to 151 °C |
| O=C(O)COc1cccc2c1CCc1sc(SC(c3ccccc3)c3ccccc3)nc1-2 | 176 to 179 °C |
| Nc1nc(-c2ccccc2)c(-c2ccc(=O)[nH]n2)s1 | > 250 °C |
| CCOC(=O)CC(=O)c1ccc(F)c(Cl)c1 | 39 to 40 °C |
| CCc1nc2c(C)cc(C)nc2n1Cc1ccc(C(=C(c2nnn[nH]2)S(C)=O)c2ccccc2)cc1 (centres undefined) | 141 to 144 °C |
| C[Si](C)(C)CCOC1OC(CO)C(O)C(O)C1N=[N+]=[N-] (centres undefined) | 158 to 161 °C |
| N#Cc1cccc(C2=NN(C(=O)Nc3ccc(OC(F)(F)F)cc3)CCC2n2cc(Cl)cn2)c1 (centres undefined) | 216 °C |
| COc1cc(OC)c(-c2cc3ccccc3[nH]2)cc1C=CC(=O)c1ccc(S(=O)(=O)NC(C)=O)cc1 | 218 to 220 °C |
| CCn1cc(C(N)=O)c(=O)c2ccc(-c3ccccn3)cc21 | 245 to 246 °C |
| CC(C)(C)c1cc(Nc2ccc(C(=O)O)cc2)cc(C(C)(C)C)c1O | 241 to 243 °C |
| CCCCCCCCCCOC(=O)CS(=O)(=O)Nc1c(C(C)C)cccc1C(C)C | 65 to 67 °C |
| CCCC(c1cccc(NC(=O)OCc2ccccc2)c1)c1c(O)c2c(oc1=O)CCCCCC2 (centres undefined) | 64 to 67 °C |
| Cc1cc2c(cc1Sc1ccc(C(=O)O)c(O)c1)C(C)(C)CCC2(C)C | 74 to 75 °C |

| SMILES | melting point |
| --- | --- |
| O=c1c(Cl)c(OCc2ccc(Cl)cc2)cnn1-c1ccc(F)cc1F | 167 °C |
| Cc1cccc(S(=O)(=O)C2(CC#Cc3ccc(Cl)cc3)SC(=O)NC2=O)n1 (centres undefined) | 104 to 106 °C |
| Cc1cc(C2(c3ccc(OC(F)F)cc3)N=C(N)N(C)C2=O)ccc1F (centres undefined) | 70 °C |
| CN1CCN(c2cc(Sc3ccc(Cl)cc3)nc(-c3ccccc3)n2)CC1 | 152 to 154 °C |
| COc1ccc(C(=O)c2c(Cc3ccccc3)oc3ccccc23)cc1 | 84 to 85 °C |
| CCCCc1ncc(CC(=O)N[C@@H](Cc2ccccc2)C(=O)O)n1Cc1ccccc1Cl | 168 to 170 °C |
| COc1cc(-n2nc(C)n(C(F)F)c2=O)c(F)cc1Cl | 86 to 88 °C |
| COc1ccc2c3c(nn(CCO)c13)-c1ccccc1N2 | 275 °C |
| CC1CCC2(c3c[nH]cn3)Cc3ccccc3C12 (centres undefined) | 168 to 172 °C |
| COC(=O)c1ccc(-c2ccc(C#N)s2)nc1 | 164 to 166 °C |
| O=C1c2ccccc2C(=O)c2c(O)c(S(=O)(=O)c3ccccc3)cc(O)c21 | 258 to 260 °C |
| Nc1nc2c(ncn2OC(CO)CCP(=O)(O)O)c(=O)[nH]1 (centres undefined) | 177 to 178 °C |
| Cc1ccc(C=C2CCc3c2oc2ccc(C(=O)O)cc2c3=O)c(C)c1 | 329 to 331 °C |
| CNC1([C@@H]2CCN(c3ccc4c(=O)c(C(=O)O)cn([C@@H]5C[C@@H]5F)c4c3OC)C2)CC1 | 213 to 215 °C |
| COc1ccc2oc(CC3CCCCC3)c(CC#N)c2c1 | 73 °C |
| O=C1CCCCC1c1cncc(Br)c1 (centres undefined) | 67 to 69 °C |
| COC(=O)C(O)CCN1C(=O)c2ccccc2C1=O (centres undefined) | 123 to 124 °C |
| COc1cc(OC)c([C@@H]2CCN(C)C[C@H]2O)c(OC)c1 (relative stereo) | 96 to 97 °C |
| CCCc1c(OCCCCCOc2c(C)c(C)c3c(c2C)CC[C@](C)(C(=O)O)O3)ccc(C(C)=O)c1O | 92.5 to 95 °C |
| Cc1sc2ncc(C(O)C=Cc3ccccc3)n2c1C (centres undefined) | 149 to 151 °C |
| O=[N+]([O-])CS(=O)(=O)c1ccc(O)cc1 | 93 to 95 °C |
| COc1ccc(/C=C/c2nc3c([nH]2)c(=O)n(C)c(=O)n3C)c(Cl)c1OC | 242 °C |
| CCOC(=NC(=O)Nc1ccc(Oc2ncc(C(F)(F)F)cc2Cl)cc1)c1c(F)cccc1F | 127 to 130 °C |
| COC(=O)CCCCc1cc2c(n1-c1ccccc1)CC(O)C2 (centres undefined) | 83 to 85.5 °C |
| CCCCC(CC)CNCCCOc1ccc2ccccc2c1 (centres undefined) | 97 °C |

| SMILES | melting point |
| --- | --- |
| COc1ccnc(CSc2nc3cc(OC(F)F)ccc3[nH]2)c1OC | 104 to 108 °C |
| CC1CC(NC(=O)C(F)(F)F)=NN1c1ccc(C(=O)C(F)(F)F)cc1 (centres undefined) | 189 to 190 °C |
| CN(C)S(=O)(=O)c1ccc(COc2cccc3c2CN(C2CCC(=O)NC2=O)C3=O)cc1 (centres undefined) | 261 to 263 °C |
| COc1ccccc1-n1c(=O)[nH]c2c(C(N)=O)nc(NC[C@H]3CCCN3)nc21 | 155 to 157 °C |
| O=C1C=C(NC(=O)C(=O)c2cn(Cc3c(F)cccc3F)c3ccccc23)CO1 | 252 to 256 °C |
| Cc1cc(F)ccc1-c1ccc(S(=O)(=O)N2c3ccccc3CC2C(=O)NCc2ccc(CC(=O)O)cc2)cc1 (centres undefined) | 95 to 100 °C |
| N#Cc1ccc(C(=O)c2cc(C(F)(F)F)ccc2O)cc1 | 118 °C |
| CC(C)(C)C(=O)ON1C(C)(C)CC(OC(=O)c2ccccc2)CC1(C)C | 107 to 110 °C |
| COc1ccc(CCc2nnc(-c3ccc4occc4c3)o2)cc1 | 127 to 128 °C |
| OCCOc1ccc2cc[nH]c2c1 | 74 to 77 °C |
| COC(=O)c1cc([N+](=O)[O-])ccc1F | 52 to 53 °C |
| O=C(O)C1Oc2cc(Cl)c(S(=O)(=O)c3cccc(Cl)c3)cc2O1 (centres undefined) | 151 to 153 °C |
| Cn1ccnc1Sc1ccc(Nc2c(C#N)cnc3cc(/C=C/CCOC4CCCCO4)ccc23)cc1Cl (centres undefined) | 217 to 220 °C |
| Nc1nc2ccccc2c2c1nc(-c1ccccc1)n2CCCCNC(=O)c1cccnc1 | 84.5 to 86.1 °C |
| CCCc1nn2ncc(C(=O)OCC)c2n1Cc1ccc(-c2ccccc2-c2nc(=O)o[nH]2)cc1 | 227 to 228 °C |
| O=S(=O)(c1ccc(Cl)cc1)C(CCCCCCO)c1cc(F)ccc1F (centres undefined) | 77 to 79 °C |
| OCc1csc(Nc2ccc(Oc3ccccc3)cn2)n1 | 130 to 131 °C |
| Cc1cc(SC2=C(O)CC(CCc3cccs3)(C(C)C)OC2=O)c(C(C)(C)C)cc1CO (centres undefined) | 73 to 77 °C |
| [N-]=[N+]=NCCOc1ccc(/C(=C(\c2ccccc2)C(F)(F)F)c2ccccc2)cc1 | 110 to 118 °C |
| CCOCc1nc2c(N)nc(C)c(C)c2n1CCOCC#Cc1ccccc1 | 129 to 130 °C |
| O=C(Nc1ccccc1)N1CCN=C1CSc1ccccc1 | 117 to 119 °C |
| CCc1noc(-c2cn(-c3cccc(Oc4ccccc4)c3)cn2)n1 | 108 to 109 °C |
| O=C(O)c1cccc2c(-c3ccccc3)c([N+](=O)[O-])oc12 | 271 to 272 °C |
| Cc1cc(C(=O)N2Cc3cccn3Cc3ccccc32)ccc1[N+](=O)[O-] | 246 to 248 °C |
| O=c1ncc(Br)cn1CCO | 177 to 179 °C |

| SMILES | melting point |
| --- | --- |
| OCC(CO)c1cccc2ccccc12 | 58 to 60 °C |
| Cc1cccc(C)c1C(=O)Oc1cc([N+](=O)[O-])cc([N+](=O)[O-])c1OC(=O)c1c(C)cccc1C | 175 to 178 °C |
| C#CCOc1ccc2ccc(=O)oc2c1 | 118 °C |
| Cc1ncc2c(C#N)c(-c3ccc(S(=O)(=O)N[C@@H](C)C4CC4)cn3)n(C3CCC3)c2n1 | 155 to 157 °C |
| CC(C)(C)OC(=O)N1CCc2cc(N)c(N)cc2CC1 | 147 to 149 °C |
| CCc1cc(C(=O)c2ccccc2Cl)c(-n2c(C)nnc2CNC(=O)c2ccc(Cl)c(Cl)c2)s1 | 151 to 152 °C |
| CN(C)C(=O)Nc1ccc(N2CCOCC2)cc1 | 199 to 204 °C |
| C=CCNC(=O)Nc1ccccc1CCc1cc(C(C)(C)C)c(O)c(C(C)(C)C)c1 | 169 to 172 °C |
| O=C(O)COc1cccc(CN2C(=O)C3(COc4cc5c(cc43)CCO5)c3ccccc32)c1 (centres undefined) | 95 to 96 °C |
| COc1ccc(C2Sc3cc(Oc4ccccc4)ccc3N(CCN(C)C)C(=O)C2OC(C)=O)cc1F (centres undefined) | 167 to 168 °C |
| CN1C(=O)C(C)(C)N=C(c2ccccc2F)c2c(Cl)c(N)c(Cl)c(Cl)c21 | 165 to 166 °C |
| CCCc1c(OCCCOc2ccc3c(=O)cc(C(=O)O)oc3c2CCC)ccc(C(C)=O)c1O | 173 to 174 °C |
| COc1ccc2c(c1)c(OC(C)C)c(C(N)=O)n2-c1ccccc1 | 152 to 154 °C |
| COc1ccc(OC)c(C(=O)CC(CC(=O)c2ccc(Cl)cc2)c2cccc(C(=O)O)c2)c1 (centres undefined) | 164 to 165 °C |
| C/C=C/c1cccc2c(=O)c(C)c(C(N)=O)oc12 | 243 to 245 °C |
| CCCCCCCCCCCCCCCCCCNC(=O)OCC(CNS(=O)(=O)CCCCl)NC(=O)OC (centres undefined) | 99 to 101 °C |
| CC(C)c1ccc(C2c3cc(N(C)C(=O)CC(C)(C)C)ccc3OC2(C)C)cc1 (centres undefined) | 78 to 79 °C |
| FC(F)(F)C(c1ccc(Cl)cc1)C(Br)c1ccccc1 (centres undefined) | 143 to 146 °C |
| CCCC1CCC(c2ccc(-c3ccc(N=C=S)cc3)cc2)CC1 (centres undefined) | 149 °C |
| CC(C)n1nc(-c2ncc(N)nc2-c2ccccc2)ccc1=O | 204 to 206 °C |
| COc1cc(C=NOCc2ccccc2)c([N+](=O)[O-])cc1OC | 109 to 113 °C |
| C#CCOc1noc2c1CN(C(=O)OC(C)(C)C)CC2 | 107 to 108 °C |
| Cc1ccc(C)c(C2CC(=O)c3c(C)ccnc3C2)c1 (centres undefined) | 95 to 96 °C |
| COC(=O)c1ccc(OCC(=O)c2ccc3c(c2)C(C)(C)CCS3)cc1O | 135 to 137 °C |
